Results: patent EP2218441A1, “Methods for the prevention and/or treatment of age spots” (Rahn Ag, priority 2009, dated 2010)

System: human keratinocytes (NHKs)
Experiment: Lipofuscin autofluorescence in human keratinocytes under H2O2 oxidative stress, normalized to total protein
Assay type: cell-based
Conditions: Keratinocyte, 48 h, 0.5 µg/ml oleuropein for 24 h before and 2 days after the stress, 1 mM H2O2 for 20 minutes, measured 2 days after oxidative stress, read-out: decrease of lipofuscin formation, as compared to untreated H2O2- exposed cells
Protocol: Because there is no specific lipofuscin antibody and its composition varies between different cell types, lipofuscin autofluorescence is the most widely used method for its detection and quantification. In order to evaluate the effect of oleuropein on lipofuscin formation in oxidatively stressed cells, lipofuscin accumulation was measured by autofluorescence, after induction of oxidative stress to human keratinocytes, treated or not with oleuropein.
After 24h incubation with oleuropein, the cells were treated with 1mM H2O2 for 20 minutes. After a recovery time of 2, 4 or 7 days, representative pictures of cells were taken and lipofuscin amount was quantified by autofluorescence measurement. […]
After 2, 4 and 7 days, respectively, representative pictures of the cells were taken, and lipofuscin autofluorescence was measured.
The total protein content was determined at each time-point for data normalization purposes. […]
The autofluorescence of lipofuscin was detected at wavenlengths of 570-605nm after an excitation at 366nm, using a fluorometer (Vistor2TM, PerkinElmer, Belgium).
For each condition tested, the quantity of autofluorescent lipofuscin was normalized to the amount of total proteins. […] The dosage of proteins was performed following the Bradford method, based on the detection of the absorbance of Coomassie Blue (Coomassie Protein Assay Kit, Pierce, USA). […]

Structure (SMILES): C/C=C1/[C@H](O[C@@H]2O[C@H](CO)[C@@H](O)[C@H](O)[C@H]2O)OC=C(C(=O)OC)[C@H]1CC(=O)OCCc1ccc(O)c(O)c1 [oleuropein, Oleuropein]
- inhibition at 0.5 µg/mL: 13%
